PMC5756101 (Journal of neuro-oncology, 2017)
Like-named read-outs stand apart in the source and are kept apart here.

Legend:
clinical = settings: human, in vivo
[1] = test system: patients with recurrent malignant glioma; settings: single agent, cited from earlier work
GBM = settings: second line treatment of patients with GBM; cited from earlier work

Compound | change of AUC between daily or twice daily dosing (clinical) | AUC (clinical; 100 mg) [ng·h/mL] | T1/2 (clinical; 100 mg) [h] | AUC (clinical; 100 mg, AUC) [ng·h/mL] | half-life (clinical; 100 mg, T1/2) [h] | predominant DLT ([1]; patients not taking EIAEDs) | predominant DLT ([1]; patients on EIAEDs) | AUC from 0–12 hours at MTD, those receiving EIAEDs compared with those not receiving EIAEDs [1] | 6-months progression free survival (PFS) (GBM)
Cn1cncc1[C@@](N)(c1ccc(Cl)cc1)c1ccc2c(c1)c(-c1cccc(Cl)c1)cc(=O)n2C [tipifarnib, Tipifarnib] | do not seem to change significantly | 761.5 ± 468.8 | 3.35 ± 1.29 | 904 ± 377 | 6.57 ± 1.18 | myelosuppression | rash | approximately halved | 
bevacizumab |  |  |  |  |  |  |  |  | 29–45%
